Laboratory results published in ChEMBL document CHEMBL3120142 (J Med Chem, 2014).
In brackets after ≈: the same amount, converted by molar mass. Activity calls are given as the source filed them. The calls are words filed in the database; no cut-off is given here.

Assays:
Liver microsome = assay: Prodrug activation in human liver microsomes assessed as formation of oseltamivir carboxylate per mg protein at 500 uM after 30 mins by HPLC analysis; conditions: 0.5 h
[1] = Prodrug activation in pig liver cytosol assessed as formation of oseltamivir carboxylate per mg protein at 500 uM after 30 mins by HPLC analysis; assay type: tissue-based, Sus scrofa; conditions: 0.5 h
[2] = Solubility of the compound in phosphate buffer saline at pH 7.4 after 20 mins by HPLC analysis; assay type: physicochemical
albumin = albumin (Homo sapiens, UniProt P02768); assay: Binding affinity to albumin (unknown origin) at 10 to 50 uM after 10 mins by HPLC analysis; assay type: ADME; conditions: read-out: PPB (converted)
[3] = Prodrug activation in pig liver mitochondria assessed as formation of oseltamivir carboxylate per mg protein at 500 uM after 30 mins by HPLC analysis; design: species or system Sus scrofa; conditions: 0.5 h
in vivo [4] = conditions: Sprague-Dawley, rat, po, 50 mg/kg
Description: Half life in Sprague-Dawley rat at 50 mg/kg, po by LC-MS/MS analysis

[5] = Prodrug activation in human liver mitochondria assessed as formation of oseltamivir carboxylate per mg protein at 500 uM after 30 mins by HPLC analysis; conditions: 0.5 h
[6] = Solubility of the compound in phosphate buffer saline at pH 2.0 after 20 mins by HPLC analysis; assay type: physicochemical
Liver = assay: Prodrug activation in 9000g human liver supernatant assessed as formation of oseltamivir carboxylate per mg protein at 500 uM after 30 mins by HPLC analysis; assay type: tissue-based; conditions: 0.5 h
[7] = Mean residence time in Sprague-Dawley rat at 50 mg/kg, po by LC-MS/MS analysis; assay type: ADME, organism-based; design: dose 50 mg/kg, route oral; conditions: in vivo
[8] = AUC in Sprague-Dawley rat at 50 mg/kg, iv by LC-MS/MS analysis; assay type: ADME, organism-based; design: dose 50 mg/kg, route intravenous; conditions: plasma
[9] = Prodrug activation in 9000g pig liver supernatant assessed as formation of oseltamivir carboxylate per mg protein at 500 uM after 30 mins by HPLC analysis; assay type: tissue-based, Sus scrofa; conditions: 0.5 h
[10] = Cmax in Sprague-Dawley rat at 50 mg/kg, po by LC-MS/MS analysis; assay type: ADME, organism-based; design: dose 50 mg/kg, route oral; conditions: in vivo
[11] = Prodrug activation in pig liver assessed as carboxylesterase-mediated oseltamivir carboxylate formation per mg protein at 500 uM after 30 mins by HPLC analysis; assay type: tissue-based, Sus scrofa; conditions: 0.5 h
in vivo [12] = conditions: Sprague-Dawley, rat, po, 50 mg/kg; remark: listed apart in the source
[13] = Prodrug activation in pig liver microsomes assessed as formation of oseltamivir carboxylate per mg protein at 500 uM after 30 mins by HPLC analysis; design: species or system Sus scrofa, Microsome; conditions: 0.5 h
[14] = Chemical stability of the compound in phosphate buffer saline at pH 2.0 to 9.0; assay type: physicochemical
[15] = Tmax in Sprague-Dawley rat at 50 mg/kg, po by LC-MS/MS analysis; assay type: ADME, organism-based; design: dose 50 mg/kg, route oral; conditions: in vivo
[16] = Solubility of the compound in phosphate buffer saline at pH 9.0 after 20 mins by HPLC analysis; assay type: physicochemical
[17] = Prodrug activation in human liver cytosol assessed as formation of oseltamivir carboxylate per mg protein at 500 uM after 30 mins by HPLC analysis; assay type: tissue-based; conditions: 0.5 h
in vivo [18] = conditions: Sprague-Dawley, rat, po, 10 mg/kg
[19] = Half life in Sprague-Dawley rat plasma; assay type: ADME, cell-free
Rattus norvegicus = assay: Bioavailability in Sprague-Dawley rat at 10 mg/kg, iv by LC-MS/MS analysis; assay type: ADME, organism-based; conditions: in vivo
[20] = Mean residence time in Sprague-Dawley rat at 10 mg/kg, iv by LC-MS/MS analysis; assay type: ADME, organism-based; design: dose 10 mg/kg, route intravenous; conditions: in vivo
Influenza A virus [21] = assay: Antiviral activity against Influenza A virus H1N1; assay type: functional, organism-based
[22] = AUC in Sprague-Dawley rat at 10 mg/kg, iv by LC-MS/MS analysis; assay type: ADME, organism-based; design: dose 10 mg/kg, route intravenous; conditions: plasma
[23] = Plasma protein binding in human at 10 to 50 uM after 10 mins by HPLC analysis; assay type: ADME, cell-free; conditions: read-out: PPB (converted)
[24] = Oral bioavailability in fed mouse at 10 mg/kg by LC-MS/MS analysis; assay type: ADME, organism-based; conditions: in vivo
MDCK = assay: Cytotoxicity against MDCK cells assessed as cell viability after 72 hrs; assay type: cell-based, Canis lupus familiaris; conditions: dog
Influenza A virus [25] = assay: Antiviral activity against Influenza A virus H3N2; assay type: functional, organism-based
Influenza A virus [26] = assay: microbe, parasite or virus in culture; conditions: A/Jena/5258/2009(H1N1), MDCK, 48 h
in vivo [27] = conditions: Sprague-Dawley, rat, iv, 10 mg/kg
Description: Half life in Sprague-Dawley rat at 10 mg/kg, iv by LC-MS/MS analysis

[28] = Oral bioavailability in fasted mouse at 10 mg/kg by LC-MS/MS analysis; assay type: ADME, organism-based; conditions: in vivo
Neuraminidase [29] = biological target: T1, Neuraminidase (Influenza A virus, UniProt B4URF0); design: species or system A/Hong Kong/68(H3N2)
Neuraminidase [30] = biological target: T1, Neuraminidase; design: species or system A/Sachsen/6/02(H3N2)
Neuraminidase [31] = biological target: T1, Neuraminidase; design: species or system A/HH/1580/09(H1N1)
Neuraminidase [32] = biological target: T1, Neuraminidase; design: species or system A/Jena/5555/09(H1N1)
Neuraminidase [33] = biological target: T1, Neuraminidase; design: species or system A/Jena/5258/2009(H1N1)
Neuraminidase [34] = biological target: T1, Neuraminidase; design: species or system A/Rheinland-Pfalz/3911/03(H3N2)
Neuraminidase [35] = biological target: T1, Neuraminidase; design: species or system A/Berlin/10/04(H3N2)
Influenza A virus [36] = assay type: functional, organism-based; conditions: A/Jena/5258/2009(H1N1), MDCK

albumin, sequence (P02768 whole entry): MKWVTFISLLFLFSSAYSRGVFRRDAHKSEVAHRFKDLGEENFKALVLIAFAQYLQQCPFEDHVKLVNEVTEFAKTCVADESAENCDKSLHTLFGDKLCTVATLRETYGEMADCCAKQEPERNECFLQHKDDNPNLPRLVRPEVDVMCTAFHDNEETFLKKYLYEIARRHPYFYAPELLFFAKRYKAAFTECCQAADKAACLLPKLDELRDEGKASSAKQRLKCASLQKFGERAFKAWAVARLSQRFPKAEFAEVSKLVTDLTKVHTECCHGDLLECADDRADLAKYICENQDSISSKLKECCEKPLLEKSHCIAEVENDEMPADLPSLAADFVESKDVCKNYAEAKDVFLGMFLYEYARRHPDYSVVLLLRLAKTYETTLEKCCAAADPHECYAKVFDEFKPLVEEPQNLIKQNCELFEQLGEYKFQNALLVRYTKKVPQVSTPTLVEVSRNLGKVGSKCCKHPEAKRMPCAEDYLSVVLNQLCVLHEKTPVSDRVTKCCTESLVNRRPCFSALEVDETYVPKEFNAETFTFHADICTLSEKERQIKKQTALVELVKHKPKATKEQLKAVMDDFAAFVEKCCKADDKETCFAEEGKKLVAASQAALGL
T1 sequence (B4URF0 whole entry): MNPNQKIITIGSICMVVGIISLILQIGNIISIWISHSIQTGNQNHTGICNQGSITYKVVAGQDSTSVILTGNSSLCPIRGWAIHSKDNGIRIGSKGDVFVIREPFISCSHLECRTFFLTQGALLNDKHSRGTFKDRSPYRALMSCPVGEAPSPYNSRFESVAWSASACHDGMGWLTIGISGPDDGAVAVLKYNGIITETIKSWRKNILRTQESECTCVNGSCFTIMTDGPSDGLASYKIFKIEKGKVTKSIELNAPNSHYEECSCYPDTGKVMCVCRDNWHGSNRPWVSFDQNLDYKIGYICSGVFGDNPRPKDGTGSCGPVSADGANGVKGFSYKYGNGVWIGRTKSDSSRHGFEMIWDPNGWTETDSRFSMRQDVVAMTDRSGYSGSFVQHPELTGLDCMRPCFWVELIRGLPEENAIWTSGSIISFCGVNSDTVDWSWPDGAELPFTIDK

| SMILES | Drug metabolism (Liver microsome) [nmol/min/mg] | solubility at 20 min [2] [mM] | fraction unbound at 10 min, up to 50 µM (albumin) | Drug metabolism [3] [nmol/min/mg] | half-life (in vivo [4]) [h] | Drug metabolism [5] [nmol/min/mg] | solubility at 20 min [6] [mM] | Drug metabolism (Liver) [nmol/min/mg] | MRT [7] [h] | AUC [8] [ng·h/mL] | Cmax [10] [ng/mL] | bioavailability (in vivo [12]) [%] | Stability [14] | Tmax [15] [h] | solubility at 20 min [16] [mM] | IC50 (Influenza A virus [21]) [nM] | IC (MDCK) | IC50 (Influenza A virus [25]) [nM] | EC50 (Influenza A virus [26]) [nM] | further results |
| --- | --- | --- | --- | --- | --- | --- | --- | --- | --- | --- | --- | --- | --- | --- | --- | --- | --- | --- | --- | --- |
| Br.CCOC(=O)C1=C[C@@H](OC(CC)CC)[C@H](NC(C)=O)[C@@H](NC(C)=N)C1 | 0.64 | > 50 | 0.652 | 0.15 | 0.7 | 0.56 | > 50 | 0.2 | 1.62 | 283 | 200 | 0.8 | Stable | 0.517 | > 50 | – | – | – | – | Drug metabolism [1]: 0.66 nmol/min; Drug metabolism [9]: 0.42 nmol/min/mg; Drug metabolism [11]: 0.83 nmol/min/mg; Drug metabolism [13]: 0.3 nmol/min/mg |
| CCOC(=O)C1=C[C@@H](OC(CC)CC)[C@H](NC(C)=O)[C@@H](NC(=N)N)C1 | 1.06 | > 50 | 0.699 | 0.21 | 1.45 | 0.79 | > 50 | 0.32 | 2.62 | 217 | 100 | 1.3 | Stable | 1 | > 50 | – | – | – | – | Drug metabolism [17]: 0.5 nmol/min/mg; Drug metabolism [9]: 0.22 nmol/min/mg; Drug metabolism [11]: 1.35 nmol/min/mg; Drug metabolism [13]: 0.22 nmol/min/mg; bioavailability (in vivo [18]): 2.1% |
| CCOC(=O)C1=C[C@@H](OC(CC)CC)[C@H](NC(C)=O)[C@@H](N)C1 [OSELTAMIVIR] | – | – | – | – | – | – | – | – | – | – | – | – | – | – | – | – | – | – | – | half-life [19]: 0.733 h; bioavailability (in vivo [18]): 36% |
| CCOC(=O)C1=C[C@@H](OC(CC)CC)[C@H](NC(C)=O)[C@@H](N/C(C)=N/O)C1 | 2.3 | 23 (≈ 8.5 mg/mL) | 0.733 | 0.51 | 1.85 | 0.29 | > 50 | 0.56 | 3.43 | 13300 | 3100 | 31.4 | Stable | 1.37 | 23 (≈ 8.5 mg/mL) | – | – | – | – | Drug metabolism [1]: 0.4 nmol/min |
| CCC(CC)O[C@@H]1C=C(C(=O)O)C[C@H](NC(=N)N)[C@H]1NC(C)=O | – | – | 0.996 | – | 1.22 | – | – | – | 2.2 | 450 | 300 | 1.9 | Stable | 1.72 | – | 0.22 | 0.55 mM | 0.8 | 3120 | F (Rattus norvegicus): 100%; MRT [20]: 0.983 h; AUC [22]: 4800 ng·h/mL; fraction unbound at 10 min, up to 50 µM [23]: 0.914; bioavailability [24]: 23%; half-life (in vivo [27]): 1.57 h; bioavailability [28]: 48% |
| CC(=O)N[C@H]1[C@H]([C@H](O)[C@H](O)CO)OC(C(=O)O)=C[C@@H]1N=C(N)N [ZANAMIVIR] | – | – | – | – | – | – | – | – | – | – | – | – | – | – | – | – | <= 200 ug ml-1 | – | – | – |
| CCOC(=O)C1=C[C@@H](OC(CC)CC)[C@H](NC(C)=O)[C@@H](NC(N)=NO)C1 | 1.76 | > 50 | 0.625 | – | 1.15 | 1.74 | > 50 | 0.76 | 2.8 | 317 | 100 | 1.5 | Stable | 1.52 | > 50 | – | – | – | – | Drug metabolism [17]: 0.28 nmol/min/mg |
| CCC(CC)O[C@@H]1C=C(C(=O)O)C[C@H](NC(C)=N)[C@H]1NC(C)=O | – | > 50 | 0.978 | – | 1.13 | – | > 50 | – | 2.1 | 1880 | 600 | 3.9 | Stable | 0.733 | > 50 | 0.4 | 0.53 mM | 1.82 | 1900 | F (Rattus norvegicus): 100%; MRT [20]: 0.533 h; IC50 (Neuraminidase [29]): 1.87 nM; IC50 (Neuraminidase [30]): 2.3 nM; IC50 (Neuraminidase [31]): 0.3 nM; fraction unbound at 10 min, up to 50 µM [23]: 0.963; IC50 (Neuraminidase [32]): 0.44 nM; IC50 (Neuraminidase [33]): 0.45 nM; IC50 (Neuraminidase [34]): 1.79 nM; half-life (in vivo [27]): 0.567 h; IC50 (Neuraminidase [35]): 1.3 nM |
| CCC(CC)O[C@@H]1C=C(C(=O)O)C[C@H](N)[C@H]1NC(C)=O [OSELTAMIVIR CARBOXYLATE] | – | – | – | – | – | – | – | – | – | – | – | – | – | – | – | 0.12 | <= 200 ug ml-1 | 0.24 | 5210 | Activity (Influenza A virus [36]): Active |
| CC(=O)N[C@H]1[C@H]([C@H](O)[C@H](O)CO)OC(C(=O)O)=C[C@@H]1NC(=N)N [ZANAMIVIR] | – | – | – | – | – | – | – | – | – | – | – | – | – | – | – | – | – | – | 6560 | Activity (Influenza A virus [36]): Active |
